In patent publication US20220340899A1, “STEREOSELECTIVE PH RESPONSIVE PEPTIDE DENDRIMERS FOR NUCLEIC ACID TRANSFECTION” (UNIVERSITÄT BERN, priority 2019, published 2022):

What was measured:
[1] = system: siRNA; test: Free siRNA assay by Quant-iT microRNA; type: binding
Experimental: Free siRNA assay by Quant-iT™ microRNA: The complexes were formed in OptiMEM by mixing siRNA (10 μmol, 0.2 μL from a 50 μM Milli-Q water solution in 6.25 μL OptiMEM pH 5 or pH 7.4) with peptide dendrimers (N/P ratio of 1-10, 42-420 μmol, 0.15-1.5 μL from a 1 mg/mL Milli-Q water solution in 6.25 μL OptiMEM pH 5 or pH 7.4) or L2000 (w/w ratio of 0.2:1-8:1, 0.0266-1.064 μL from the 1 mg/mL commercial solution in 6.25 μL OptiMEM pH 7.4) for 30 min at room temperature (12.5 μL, concentration of 800 nM siRNA and 1.68-16.8 μM i.e. 12-120 μg/mL peptide dendrimers or 0.133-5.32 μg/mL L2000). Then, the Quant-iT™ microRNA Assay Kit (Thermo Fisher Scientific, Reinach, CH) was used following the manufacturer's protocol. Briefly, 1 μl of reagent was diluted in 200 μl of buffer (pH 5 by acidification by 10 mM acetate buffer or standard pH 7.4) and 195 μL added to the well of a TPP 96-well plate. Then, 5 μl of the complexes were added to the wells (200 μL, final concentration of 20 nM siRNA and 42-420 nM i.e. 0.3-3 μg/mL peptide dendrimers or 0.0532-2.128 μg/mL L2000) and fluorescence measured at λex=500 nm and λem=525 nm after 10 min on a Tecan Infinite M1000 Pro plate reader. The Quant-iT™ microRNA signal from the complexes were normalized against a «siRNA only» control to yield the percentage of the signal detected.

[2] = system: HT-1080, PC-3, MCF-7, SH-SY5Y and Caco-2 cell lines; test: siRNA transfection, GAPDH knock-down in five additional cell lines; type: cell-based; conditions: including SH-SY5Y and Caco-2
Experimental: siRNA Transfection and Protein Quantitation: HeLa, CHO, PC3, SH-SY5Y, Caco-2 and MCF-7 cells were seeded in TPP 96-well plates (Faust Laborbedarf AG, Schaffhausen) at 5×10^3 cells per well the day before transfection. The 96-well plates were coated with poly-L-Lysine (Sigma aldrich, Buchs, CH) for 1 h and dried under a flow of air in the fumehood at RT before plating HEK-293 and HT-1080 at 5×10^3 cells per well the day before transfection. Cells were always used in their exponential phase for transfection and with a number of passages between 3 to 20. The siRNA transfection complexes were formed in OptiMEM by mixing siRNA (1-20 μmol, 0.02-0.4 μL from a 50 μM Milli-Q water solution in 6.25 μL OptiMEM) with peptide dendrimers (N/P ratio of 1-100, 21-420 μmol, 0.1-3.5 μl from a 1 mg/mL Milli-Q water solution in 6.25 μL OptiMEM) or L2000 (w/w ratio of 0.5:1-2:1, 0.0665-0.266 μg, 0.0665-0.266 μL from the 1 mg/mL commercial solution in 6.25 μL OptiMEM) at room temperature for 30 minutes (12.5 μL, concentration of 80-1600 nM siRNA and 1.68-33.6 μM i.e. 12-240 μg/mL peptide dendrimers or 5.32-21.28 μg/mL L2000). […] Briefly, medium was removed, cells were lysed with 200 μL cold lysis buffer, 2-10 μL of lysis buffer from each well was taken to a new 96 well plate containing 90 μL Master Mix and fluorescence measured at λex=560 nm and λem=590 nm on a Tecan Infinite M1000 Pro plate reader.

Row | Substance | GADPH knock-down in five additional cell lines [2] | also measured
1 | (KL)8(KKL)4(KKL)2KLLLL [MH46] |  | siRNA binding (in words) [1]: weakly bound siRNA
2 | (kl)8(kkl)4(kll)2kk(C16)k(C16) [DMH13] | effectively transfected all five cell lines | 
3 | (RL)8(KRL)4(KLL)2KLLLL [MH44] |  | unbound siRNA [1]: 1.6±0.3%
4 | (kl)8(kkl)4(kll)2kllll [DMH18] | effectively transfected all five cell lines | 
